This passage reports logP and chromatographic logP results from patent US8101550B2, “Anthranilic acid diamide derivative with hetero-aromatic and hetero-cyclic substituents” (Bayer Cropscience AG, priority 2006, dated 2012).

The first data set is described as follows: log P determination by HPLC on reverse-phase column (EEC Directive 79/831 Annex V.A8). It counts as physicochemical. The settings on record: HPLC on reverse-phase column. As for the experimental part: The log P values stated in the foregoing tables and preparation examples are determined in accordance with EEC Directive 79/831 Annex V.A8 by means of HPLC (High Performance Liquid Chromatography) on a reverse-phase column (C 18). Temperature: 43° C.
The determination by LC-MS in the acidic range takes place at a pH of 2.7 using 0.1% aqueous formic acid and acetonitrile (containing 0.1% formic acid) as eluents; linear gradient from 10% acetonitrile to 95% acetonitrile.
Calibration is with unbranched alkan-2-ones (having 3 to 16 carbon atoms) of known log P value (log P values determined from the retention times by linear interpolation between two successive alkanones).
By logP is commonly meant a log measure of how a compound divides between an organic and an aqueous phase. A lower logP goes with a more hydrophilic compound. On to `CNC(=O)c1cc(Cl)cc(C)c1NC(=O)c1cc(Cn2nnn(-c3ccc(Cl)cc3)c2=O)nn1-c1ncccc1Cl` [I-1-38], for which the logP is given as 3.28.
`CNC(=O)c1cc(Cl)cc(C)c1NC(=O)c1cc(Cn2nc(C(F)(F)F)nc2C(F)(F)F)nn1-c1c(Cl)cccc1Cl` [I-1-41] showed a logP of 4.13.
Take `CNC(=O)c1cc(Cl)cc(C)c1NC(=O)c1cc(Cn2cc(C(F)(F)F)cn2)nn1-c1ncccc1Cl` [I-1-42]: the logP is on record as 2.76.
Turning to `Cc1cc(Cl)cc(C(=O)NC(C)C)c1NC(=O)c1cc(Cn2cc(C(F)(F)F)cn2)nn1-c1ncccc1Cl` [I-1-43], the logP is reported as 3.20.
The same measure, in the same setting: the value for `CNC(=O)c1cc(Cl)cc(C)c1NC(=O)c1cc(Cn2ccc(C(F)(F)F)n2)nn1-c1ncccc1Cl` [I-1-44] was 2.92.
In turn, `CNC(=O)c1cc(Cl)cc(C)c1NC(=O)c1cc(Cn2cc(I)cn2)nn1-c1ncccc1Cl` [I-1-45] displayed a logP of 2.67.
As to `Cc1cc(Cl)cc(C(=O)NC2CC2)c1NC(=O)c1cc(Cn2cc(C(F)(F)C(F)(F)F)c(C(F)(F)C(F)(F)F)n2)nn1-c1ncccc1Cl` [I-1-46], the logP worked out at 4.58.
Same read-out and setting: the value for `Cc1cc(Cl)cc(C(=O)NCC#N)c1NC(=O)c1cc(Cn2cc(C(F)(F)C(F)(F)F)c(C(F)(F)C(F)(F)F)n2)nn1-c1ncccc1Cl` [I-1-47] was 4.31; that for `Cc1cc(Cl)cc(C(N)=O)c1NC(=O)c1cc(Cn2cc(C(F)(F)C(F)(F)F)c(C(F)(F)C(F)(F)F)n2)nn1-c1ncccc1Cl` [I-1-48] was 4.15; that for `Cc1cc(Cl)cc(C(=O)NCC#N)c1NC(=O)c1cc(Cn2nc(C(F)(F)F)nc2C(F)(F)F)nn1-c1ncccc1Cl` [I-1-49] was 3.97.
Same read-out and setting: the value for `Cc1cc(Cl)cc(C(N)=O)c1NC(=O)c1cc(Cn2nc(C(F)(F)F)nc2C(F)(F)F)nn1-c1ncccc1Cl` [I-1-50] was 3.88.
The same measure, in the same setting: the value for `Cc1cc(Cl)cc(C(=O)NC(C)C)c1NC(=O)c1cc(Cn2nnn(-c3c(C)cccc3Cl)c2=O)nn1-c1ncccc1Cl` [I-1-51] was 3.52.
In the case of `Cc1cc(Br)cc(C(=O)NC2CC2)c1NC(=O)c1cc(Cn2cc(C(F)(F)C(F)(F)F)c(C(F)(F)C(F)(F)F)n2)nn1-c1ncccc1Cl` [I-1-52], the log partition coefficient (logP) was found to be 4.59.
Still for that read-out and setting: the value for `Cc1cc(Br)cc(C(N)=O)c1NC(=O)c1cc(Cn2cc(C(F)(F)C(F)(F)F)c(C(F)(F)C(F)(F)F)n2)nn1-c1ncccc1Cl` [I-1-53] was 4.17; that for `Cc1cc(Cl)cc(C(=O)NC2CC2)c1NC(=O)c1cc(Cn2nc(C(F)(F)F)nc2C(F)(F)F)nn1-c1ncccc1Cl` [I-1-54] was 3.61.
`Cc1cc(Cl)cc(C(=O)NCC#N)c1NC(=O)c1cc(Cn2nc(C(F)(F)F)nc2C(F)(F)F)nn1-c1ncccc1Cl` [I-1-55]: the logP is recorded as 3.40.
In turn, `Cc1cc(Br)cc(C(=O)NCC#N)c1NC(=O)c1cc(Cn2nc(C(F)(F)F)nc2C(F)(F)F)nn1-c1ncccc1Cl` [I-1-56] displayed a lipophilicity (logP) of 3.44.
Still for that read-out and setting: the value for `Cc1cc(Br)cc(C(=O)NC2CC2)c1NC(=O)c1cc(Cn2nc(C(F)(F)F)nc2C(F)(F)F)nn1-c1ncccc1Cl` [I-1-57] was 3.67.
The same measure, in the same setting: the value for `CNC(=O)c1cc(Br)cc(C)c1NC(=O)c1cc(Cn2nc(C(F)(F)F)cc2C(F)(F)F)nn1-c1ncccc1Cl` [I-1-58] was 3.76; that for `Cc1cc(Br)cc(C(=O)NCC#N)c1NC(=O)c1cc(Cn2nc(C(F)(F)F)cc2C(F)(F)F)nn1-c1ncccc1Cl` [I-1-59] was 3.65; that for `Cc1cc(Br)cc(C(=O)NC2CC2)c1NC(=O)c1cc(Cn2nc(C(F)(F)F)cc2C(F)(F)F)nn1-c1ncccc1Cl` [I-1-60] was 3.91.
The same measure, in the same setting: the value for `Cc1cc(Br)cc(C(N)=O)c1NC(=O)c1cc(Cn2nc(C(F)(F)F)cc2C(F)(F)F)nn1-c1ncccc1Cl` [I-1-61] was 3.53.
`CNC(=O)c1cc(Cl)cc(C)c1NC(=O)c1cc(Cn2cc(I)c(C(F)(F)F)n2)nn1-c1ncccc1Cl` [I-1-62] registered a logP of 3.41.
Still for that read-out and setting: the value for `Cc1cc(Cl)cc(C(=O)NC(C)C)c1NC(=O)c1cc(Cn2cc(I)c(C(F)(F)F)n2)nn1-c1ncccc1Cl` [I-1-63] was 3.85.
With `CNC(=O)c1cc(Cl)cc(C)c1NC(=O)c1cc(Cn2cc(C(F)(F)C(F)(F)F)cn2)nn1-c1ncccc1Cl` [I-1-64], the logP is listed as 3.21.
For `Cc1cc(Cl)cc(C(=O)NC(C)C)c1NC(=O)c1cc(Cn2cc(C(F)(F)C(F)(F)F)cn2)nn1-c1ncccc1Cl` [I-1-65], the logP came out at 3.67.
Molecule `CNC(=O)c1cc(Cl)cc(C)c1NC(=O)c1cc(Cn2cc(Br)c(C(F)(F)F)n2)nn1-c1ncccc1Cl` [I-1-66] showed a log partition coefficient (logP) of 3.38.
Turning to `Cc1cc(Cl)cc(C(=O)NC(C)C)c1NC(=O)c1cc(Cn2cc(Br)c(C(F)(F)F)n2)nn1-c1ncccc1Cl` [I-1-67], the logP is on record as 3.78.
Molecule `CNC(=O)c1cc(Br)cc(C)c1NC(=O)c1cc(Cn2cc(Br)c(C(F)(F)F)n2)nn1-c1ncccc1Cl` [I-1-68] registered a logP of 3.46.
`Cc1cc(Br)cc(C(=O)NC(C)C)c1NC(=O)c1cc(Cn2cc(Br)c(C(F)(F)F)n2)nn1-c1ncccc1Cl` [I-1-69] yielded a logP of 3.92.
For the molecule `CNC(=O)c1cc(Br)cc(C)c1NC(=O)c1cc(Cn2cc(Cl)c(C(F)(F)C(F)(F)F)n2)nn1-c1ncccc1Cl` [I-1-70], the logP was 3.94.
The molecule `Cc1cc(Br)cc(C(=O)NC(C)C)c1NC(=O)c1cc(Cn2cc(Cl)c(C(F)(F)C(F)(F)F)n2)nn1-c1ncccc1Cl` [I-1-71] displayed a logP of 4.40.
Regarding `Cc1cc(Br)cc(C(=O)NC2CC2)c1NC(=O)c1cc(Cn2cc(Cl)c(C(F)(F)C(F)(F)F)n2)nn1-c1ncccc1Cl` [I-1-72], the logP is given as 4.14.
The molecule `Cc1cc(Br)cc(C(=O)NCC#N)c1NC(=O)c1cc(Cn2cc(Cl)c(C(F)(F)C(F)(F)F)n2)nn1-c1ncccc1Cl` [I-1-73] came in with a logP of 3.87.
On the same count and under the same terms, the value for `Cc1cc(Br)cc(C(N)=O)c1NC(=O)c1cc(Cn2cc(Cl)c(C(F)(F)C(F)(F)F)n2)nn1-c1ncccc1Cl` [I-1-74] was 3.68; that for `CSC[C@H](C)NC(=O)c1cc(Cl)cc(C)c1NC(=O)c1cc(Cn2nc(C(F)(F)F)nc2C(F)(F)F)nn1-c1ncccc1Cl` [I-1-75] was 4.04.
Still for that read-out and setting: the value for `CCNC(=O)OC[C@H](C)NC(=O)c1cc(Cl)cc(C)c1NC(=O)c1cc(Cn2nc(C(F)(F)F)nc2C(F)(F)F)nn1-c1ncccc1Cl` [I-1-77] was 3.58; that for `CNC(=O)OC[C@H](C)NC(=O)c1cc(Cl)cc(C)c1NC(=O)c1cc(Cn2nc(C(F)(F)F)nc2C(F)(F)F)nn1-c1ncccc1Cl` [I-1-78] was 3.36; that for `Cc1cc(Cl)cc(C(=O)NCC#N)c1NC(=O)c1cc(Cn2nc(C(F)(F)F)nc2C(F)(F)F)nn1-c1ncccc1Cl` [I-1-79] was 3.62.
Same read-out and setting: the value for `CNC(=O)c1cc(Br)cc(C)c1NC(=O)c1cc(Cn2ccc(C(F)(F)F)n2)nn1-c1ncccc1Cl` [I-1-80] was 2.99; that for `Cc1cc(Br)cc(C(=O)NC(C)C)c1NC(=O)c1cc(Cn2ccc(C(F)(F)F)n2)nn1-c1ncccc1Cl` [I-1-81] was 3.46; that for `Cc1cc(Br)cc(C(=O)NC2CC2)c1NC(=O)c1cc(Cn2ccc(C(F)(F)F)n2)nn1-c1ncccc1Cl` [I-1-82] was 3.18.
In the case of `Cc1cc(Br)cc(C(N)=O)c1NC(=O)c1cc(Cn2ccc(C(F)(F)F)n2)nn1-c1ncccc1Cl` [I-1-83], the lipophilicity (logP) is 2.75.
`CSC[C@H](C)NC(=O)c1cccc(C)c1NC(=O)c1cc(Cn2nc(C(F)(F)F)nc2C(F)(F)F)nn1-c1ncccc1Cl` [I-1-84] returned a logP of 3.62.
As to `Cc1cc(Br)cc(C(=O)NCC#N)c1NC(=O)c1cc(Cn2ccc(C(F)(F)F)n2)nn1-c1ncccc1Cl` [I-1-85], the logP came to 2.98.
Molecule `CNC(=O)c1cc(Cl)cc(C)c1NC(=O)c1cc(Cn2nc(C(F)(F)C(F)(F)F)nc2C(F)(F)F)nn1-c1ncccc1Cl` [I-1-86] had a logP of 3.78.
Consider `Cc1cccc(C(=O)N[C@@H](C)CS(C)(=O)=O)c1NC(=O)c1cc(Cn2nc(C(F)(F)F)nc2C(F)(F)F)nn1-c1ncccc1Cl` [I-1-87], for which the lipophilicity (logP) stood at 2.92.

Staying with this data set, now noted: reverse-phase C18 HPLC column; HPLC, reverse-phase column (C 18), 43° C., acidic range pH 2.7; read-out: logP.
Take `Cc1cc(Cl)cc2c(=O)oc(-c3cc(Cn4nc(C(F)(F)F)cc4C(F)(F)F)nn3-c3ncccc3Cl)nc12` [Example 2, 2-[5-(3,5-Bistrifluoromethylpyrazol-1-ylmethyl)-2-(3-chloropyridin-2-yl)-2H-pyrazol-3-yl]-6-chloro-8-methylbenzo[d][1,3]oxazin-4-one]: the chromatographic logP came out at 5.11.
With `O=C(O)c1cc(Cn2nc(C(F)(F)F)cc2C(F)(F)F)nn1-c1ncccc1Cl` [Example 3, 5-(3,5-Bistrifluoromethylpyrazol-1-ylmethyl)-2-(3-chloropyridin-2-yl)-2H-pyrazole-3-carboxylic acid], the chromatographic logP is 2.86.
Turning to `COC(=O)c1cc(Cn2nc(C(F)(F)F)cc2C(F)(F)F)nn1-c1ncccc1Cl` [Example 4, Methyl 5-(3,5-bistrifluoromethylpyrazol-1-ylmethyl)-2-(3-chloropyridin-2-yl)-2H-pyrazole-3-carboxylate], the chromatographic logP stood at 3.71.
As for `COC(=O)c1cc(COS(C)(=O)=O)nn1-c1ncccc1Cl` [Example 5, Methyl 2-(3-chloropyridin-2-yl)-5-methanesulphonyloxymethyl-2H-pyrazole-3-carboxylate], the chromatographic logP amounted to 1.55.
As for `COC(=O)c1cc(CO)nn1-c1ncccc1Cl` [Example 6, Methyl 2-(3-chloropyridin-2-yl)-5-hydroxymethyl-2H-pyrazole-3-carboxylate], the chromatographic logP came out at 1.26.
On the same count and under the same terms, the value for `COC(=O)c1cc(C(=O)OC)n(-c2ncccc2Cl)n1` [Example 7, Dimethyl 1-(3-chloropyridin-2-yl)-1H-pyrazole-3,5-dicarboxylate] was 1.97.
